Laboratory results from US11697648B2, “Fused pyrimidine pyridinone compounds as JAK inhibitors” (THERAVANCE BIOPHARMA R&D IP, LLC, priority 2019, dated 2023).

Assays:
[1] = test system: IL-2 stimulated STAT5 phosphorylation in Tall-1 human T cell line (JAK3); test: Cellular JAK3 potency assay: inhibition of IL-2 stimulated pSTAT5 in Tall-1 T cells; format: cell-based; conditions: IL-2 stimulated pSTAT5 in Tall-1 T cells
In short: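 Tall-1 cells, 45,000 per well, preincubated 1 hour with compound at 37 °C, then stimulated 30 minutes with IL-2 at 300 ng/ml final. pSTAT5 (Tyr694/699) in lysates quantified by AlphaLISA SureFire Ultra. pIC50 derived from inhibition curves, given as mean with SD.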

JAK2 = JAK2 (Homo sapiens (Human), UniProt O60674); test: Biochemical JAK2 kinase assay (LanthaScreen)
In short: (§1)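 GST-JAK + GFP-STAT1 peptide, HEPES pH 7.5/MgCl2/EGTA/Brij-35 buffer; cpd preincubation 1 h RT; ATP start, 1 h RT; stop with 10 mM EDTA + 2 nM Tb-anti-pSTAT1; TR-FRET 520/495. 4-parameter IC50 → pKi (Cheng-Prusoff).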

JAK3 = JAK3 (Homo sapiens (Human), UniProt P52333); test: Biochemical JAK3 kinase assay (LanthaScreen); conditions: for JAK3 (pKi)-JAK1 (pKi): selectivity, difference of pKi values
In short: as §1

JAK1 = JAK1 (Homo sapiens (Human), UniProt P23458); test: Biochemical JAK1 kinase assay (LanthaScreen)
In short: as §1

Tyk2 = Tyk2 (Homo sapiens (Human), UniProt P29597); test: Biochemical Tyk2 kinase assay (LanthaScreen)
In short: as §1

JAK3, sequence (P52333 whole entry): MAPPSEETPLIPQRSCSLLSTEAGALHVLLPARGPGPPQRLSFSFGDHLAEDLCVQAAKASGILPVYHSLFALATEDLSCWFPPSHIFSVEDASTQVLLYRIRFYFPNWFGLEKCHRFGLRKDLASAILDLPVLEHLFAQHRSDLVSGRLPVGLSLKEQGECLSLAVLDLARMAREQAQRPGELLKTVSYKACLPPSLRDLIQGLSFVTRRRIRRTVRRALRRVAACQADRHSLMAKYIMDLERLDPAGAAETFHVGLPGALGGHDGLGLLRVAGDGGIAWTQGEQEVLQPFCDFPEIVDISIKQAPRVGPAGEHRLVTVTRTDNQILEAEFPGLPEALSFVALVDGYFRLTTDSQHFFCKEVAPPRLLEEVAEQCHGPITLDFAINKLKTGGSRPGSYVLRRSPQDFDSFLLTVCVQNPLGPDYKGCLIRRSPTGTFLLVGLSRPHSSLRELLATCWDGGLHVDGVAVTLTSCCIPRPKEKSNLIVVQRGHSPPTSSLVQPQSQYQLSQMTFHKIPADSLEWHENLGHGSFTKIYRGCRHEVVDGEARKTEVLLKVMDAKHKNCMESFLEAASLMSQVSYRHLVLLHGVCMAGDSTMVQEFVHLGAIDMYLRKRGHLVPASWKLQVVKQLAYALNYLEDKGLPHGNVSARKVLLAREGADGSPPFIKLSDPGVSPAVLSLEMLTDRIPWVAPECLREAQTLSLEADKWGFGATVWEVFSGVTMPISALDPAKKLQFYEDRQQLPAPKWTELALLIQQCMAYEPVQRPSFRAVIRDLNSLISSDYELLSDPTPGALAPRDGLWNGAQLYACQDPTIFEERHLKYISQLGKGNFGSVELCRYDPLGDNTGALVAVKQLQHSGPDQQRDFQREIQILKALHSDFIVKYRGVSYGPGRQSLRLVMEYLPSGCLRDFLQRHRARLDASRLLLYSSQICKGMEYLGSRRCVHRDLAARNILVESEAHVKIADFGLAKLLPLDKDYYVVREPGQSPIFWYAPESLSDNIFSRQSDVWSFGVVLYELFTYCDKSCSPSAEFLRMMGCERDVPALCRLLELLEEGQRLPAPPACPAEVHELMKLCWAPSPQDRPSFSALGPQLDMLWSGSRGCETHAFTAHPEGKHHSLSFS
Tyk2, sequence (P29597 whole entry): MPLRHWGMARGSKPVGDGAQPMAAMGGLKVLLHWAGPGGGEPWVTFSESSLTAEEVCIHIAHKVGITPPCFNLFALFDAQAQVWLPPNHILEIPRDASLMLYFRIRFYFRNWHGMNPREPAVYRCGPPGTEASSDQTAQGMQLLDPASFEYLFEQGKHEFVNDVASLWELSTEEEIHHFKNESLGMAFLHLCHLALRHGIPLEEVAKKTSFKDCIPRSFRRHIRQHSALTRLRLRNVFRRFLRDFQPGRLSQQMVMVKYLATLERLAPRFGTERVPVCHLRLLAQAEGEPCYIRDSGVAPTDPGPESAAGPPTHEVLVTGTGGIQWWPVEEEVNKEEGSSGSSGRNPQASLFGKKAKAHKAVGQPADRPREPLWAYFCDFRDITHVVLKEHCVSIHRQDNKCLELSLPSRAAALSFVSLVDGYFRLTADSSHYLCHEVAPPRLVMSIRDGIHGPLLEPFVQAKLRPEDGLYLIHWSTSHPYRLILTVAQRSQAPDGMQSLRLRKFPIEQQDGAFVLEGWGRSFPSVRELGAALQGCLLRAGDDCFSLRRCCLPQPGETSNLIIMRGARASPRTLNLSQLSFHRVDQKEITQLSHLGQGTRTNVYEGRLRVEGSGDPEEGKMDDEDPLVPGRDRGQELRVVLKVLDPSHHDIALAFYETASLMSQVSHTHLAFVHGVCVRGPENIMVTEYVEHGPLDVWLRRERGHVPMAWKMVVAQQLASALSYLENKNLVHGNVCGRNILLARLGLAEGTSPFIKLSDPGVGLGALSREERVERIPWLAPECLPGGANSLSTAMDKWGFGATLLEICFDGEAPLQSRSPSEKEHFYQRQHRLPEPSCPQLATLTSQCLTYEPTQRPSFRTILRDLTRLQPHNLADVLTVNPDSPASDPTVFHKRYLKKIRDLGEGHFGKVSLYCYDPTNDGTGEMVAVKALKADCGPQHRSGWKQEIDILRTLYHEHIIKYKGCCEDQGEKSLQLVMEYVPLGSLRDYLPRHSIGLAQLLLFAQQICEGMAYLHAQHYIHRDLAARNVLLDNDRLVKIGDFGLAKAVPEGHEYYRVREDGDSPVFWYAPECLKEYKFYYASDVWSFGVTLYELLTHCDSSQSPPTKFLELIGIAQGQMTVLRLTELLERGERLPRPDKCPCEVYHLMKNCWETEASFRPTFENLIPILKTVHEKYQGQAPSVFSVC
JAK2, sequence (O60674 whole entry): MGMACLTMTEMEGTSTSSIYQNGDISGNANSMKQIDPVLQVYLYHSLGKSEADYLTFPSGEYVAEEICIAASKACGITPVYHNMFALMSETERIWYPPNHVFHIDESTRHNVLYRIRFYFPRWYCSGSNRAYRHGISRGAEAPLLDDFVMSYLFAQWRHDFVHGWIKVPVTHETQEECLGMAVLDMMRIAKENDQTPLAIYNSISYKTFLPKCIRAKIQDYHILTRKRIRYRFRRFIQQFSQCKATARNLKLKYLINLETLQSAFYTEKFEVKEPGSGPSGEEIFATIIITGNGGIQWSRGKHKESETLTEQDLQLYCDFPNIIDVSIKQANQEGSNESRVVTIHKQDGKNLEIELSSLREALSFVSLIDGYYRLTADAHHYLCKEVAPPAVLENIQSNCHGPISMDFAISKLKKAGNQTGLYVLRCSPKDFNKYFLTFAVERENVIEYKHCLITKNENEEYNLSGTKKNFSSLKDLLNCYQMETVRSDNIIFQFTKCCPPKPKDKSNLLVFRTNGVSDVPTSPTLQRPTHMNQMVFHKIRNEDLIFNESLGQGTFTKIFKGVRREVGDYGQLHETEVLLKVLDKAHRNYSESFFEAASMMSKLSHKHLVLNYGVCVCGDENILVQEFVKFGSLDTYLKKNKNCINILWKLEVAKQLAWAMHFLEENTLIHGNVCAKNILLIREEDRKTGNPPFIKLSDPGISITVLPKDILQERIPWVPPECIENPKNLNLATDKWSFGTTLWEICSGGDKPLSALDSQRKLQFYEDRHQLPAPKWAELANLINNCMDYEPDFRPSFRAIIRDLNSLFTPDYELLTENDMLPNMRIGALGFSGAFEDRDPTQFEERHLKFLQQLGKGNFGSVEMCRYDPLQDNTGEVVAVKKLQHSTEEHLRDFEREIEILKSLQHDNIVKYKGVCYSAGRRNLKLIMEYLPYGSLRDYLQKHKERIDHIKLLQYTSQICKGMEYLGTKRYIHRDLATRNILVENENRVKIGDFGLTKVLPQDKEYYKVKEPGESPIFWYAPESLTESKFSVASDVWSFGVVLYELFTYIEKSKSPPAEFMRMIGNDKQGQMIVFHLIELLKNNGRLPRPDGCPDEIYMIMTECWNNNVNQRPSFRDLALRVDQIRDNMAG
JAK1, sequence (P23458 whole entry): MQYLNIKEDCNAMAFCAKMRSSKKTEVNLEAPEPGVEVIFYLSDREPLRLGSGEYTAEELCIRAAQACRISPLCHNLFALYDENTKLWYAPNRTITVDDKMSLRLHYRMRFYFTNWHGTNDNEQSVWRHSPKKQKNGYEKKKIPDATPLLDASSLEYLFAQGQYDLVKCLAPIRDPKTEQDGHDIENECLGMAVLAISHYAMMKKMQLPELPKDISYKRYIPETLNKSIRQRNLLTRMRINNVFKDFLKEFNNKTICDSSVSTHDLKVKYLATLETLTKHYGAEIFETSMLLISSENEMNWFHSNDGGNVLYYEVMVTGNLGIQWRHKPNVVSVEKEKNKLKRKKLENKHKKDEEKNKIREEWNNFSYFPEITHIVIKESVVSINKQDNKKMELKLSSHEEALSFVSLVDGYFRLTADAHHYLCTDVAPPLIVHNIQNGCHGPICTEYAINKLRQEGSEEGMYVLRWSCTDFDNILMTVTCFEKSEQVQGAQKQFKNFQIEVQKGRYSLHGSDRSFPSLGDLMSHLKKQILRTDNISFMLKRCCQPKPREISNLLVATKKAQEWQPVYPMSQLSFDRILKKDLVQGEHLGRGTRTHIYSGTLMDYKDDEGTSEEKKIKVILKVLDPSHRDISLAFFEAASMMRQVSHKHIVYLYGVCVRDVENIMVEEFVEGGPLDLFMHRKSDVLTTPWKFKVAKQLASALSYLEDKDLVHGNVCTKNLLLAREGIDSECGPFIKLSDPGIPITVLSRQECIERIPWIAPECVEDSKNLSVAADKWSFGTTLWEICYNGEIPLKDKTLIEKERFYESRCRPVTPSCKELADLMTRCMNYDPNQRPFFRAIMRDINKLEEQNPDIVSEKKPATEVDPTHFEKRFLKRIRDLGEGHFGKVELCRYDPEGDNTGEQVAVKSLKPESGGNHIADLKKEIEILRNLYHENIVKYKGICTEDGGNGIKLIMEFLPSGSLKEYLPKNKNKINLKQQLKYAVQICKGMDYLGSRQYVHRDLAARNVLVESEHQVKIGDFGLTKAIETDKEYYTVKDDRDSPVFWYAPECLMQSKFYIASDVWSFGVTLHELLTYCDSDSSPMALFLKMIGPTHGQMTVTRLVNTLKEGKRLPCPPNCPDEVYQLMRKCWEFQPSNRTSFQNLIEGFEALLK

Structure (SMILES) | Tall-1 (pIC50) [1] | JAK 2 (pKi) (JAK2) | JAK 3 (pKi) (JAK3) | JAK3 (pKi)-JAK1 (pKi) (JAK3) | JAK 1 (pKi) (JAK1) | Tyk 2 (pKi) (Tyk2)
C=CC(=O)N1CC(CCn2c(=O)ccc3cnc(Nc4cnn(CC)c4)nc32)C1 [Example 241] | B (B represents a pC50 value between 6.7 (included) and 7.5 (IC50 between 200 nM and 32 nM)) | E (E represents a pKi value of 7 or below (Ki of 100 nM or above)) | B (B represents pKi value between 9 and 10 (Ki between 1 nM and 0.1 nM)) | A (A represents a value of 3 or above) | E (E represents a pKi value of 7 or below (Ki of 100 nM or above)) | E (E represents a pKi value of 7 or below (Ki of 100 nM or above))
C=CC(=O)N1CCN(CCn2c(=O)ccc3cnc(Nc4cnn(CC)c4)nc32)[C@@H](CC)C1 [Example 242] | B (B represents a pC50 value between 6.7 (included) and 7.5 (IC50 between 200 nM and 32 nM)) | E (E represents a pKi value of 7 or below (Ki of 100 nM or above)) | B (B represents pKi value between 9 and 10 (Ki between 1 nM and 0.1 nM)) | A (A represents a value of 3 or above) | E (E represents a pKi value of 7 or below (Ki of 100 nM or above)) | E (E represents a pKi value of 7 or below (Ki of 100 nM or above))
C=CC(=O)N1CCN(CCn2c(=O)ccc3cnc(Nc4cnn(CC)c4)nc32)[C@@H](C)C1 [Example 243] | B (B represents a pC50 value between 6.7 (included) and 7.5 (IC50 between 200 nM and 32 nM)) | E (E represents a pKi value of 7 or below (Ki of 100 nM or above)) | B (B represents pKi value between 9 and 10 (Ki between 1 nM and 0.1 nM)) | A (A represents a value of 3 or above) | E (E represents a pKi value of 7 or below (Ki of 100 nM or above)) | E (E represents a pKi value of 7 or below (Ki of 100 nM or above))
C=CC(=O)N1CCN(CCn2c(=O)ccc3cnc(Nc4cnn(CCN5CCOCC5)c4)nc32)[C@@H](CC)C1 [Example 244] | B (B represents a pC50 value between 6.7 (included) and 7.5 (IC50 between 200 nM and 32 nM)) | E (E represents a pKi value of 7 or below (Ki of 100 nM or above)) | B (B represents pKi value between 9 and 10 (Ki between 1 nM and 0.1 nM)) | A (A represents a value of 3 or above) | E (E represents a pKi value of 7 or below (Ki of 100 nM or above)) | E (E represents a pKi value of 7 or below (Ki of 100 nM or above))
C=CC(=O)N1CCN(CCn2c(=O)ccc3cnc(Nc4cnn(CCN5CCOCC5)c4)nc32)[C@@H](C)C1 [Example 245] | B (B represents a pC50 value between 6.7 (included) and 7.5 (IC50 between 200 nM and 32 nM)) | E (E represents a pKi value of 7 or below (Ki of 100 nM or above)) | B (B represents pKi value between 9 and 10 (Ki between 1 nM and 0.1 nM)) | A (A represents a value of 3 or above) | E (E represents a pKi value of 7 or below (Ki of 100 nM or above)) | E (E represents a pKi value of 7 or below (Ki of 100 nM or above))
C=CC(=O)N1CC(C(C)(C)Cn2c(=O)ccc3cnc(Nc4ccc(N5CCN(C)CC5)cc4)nc32)C1 [Example 246] | B (B represents a pC50 value between 6.7 (included) and 7.5 (IC50 between 200 nM and 32 nM)) | E (E represents a pKi value of 7 or below (Ki of 100 nM or above)) | B (B represents pKi value between 9 and 10 (Ki between 1 nM and 0.1 nM)) | A (A represents a value of 3 or above) | E (E represents a pKi value of 7 or below (Ki of 100 nM or above)) | E (E represents a pKi value of 7 or below (Ki of 100 nM or above))
C=CC(=O)N1CC(CCn2c(=O)ccc3cnc(Nc4ccc(N5C[C@@H](C)N(C)[C@@H](C)C5)cc4)nc32)C1 [Example 247] | A (A represents a pIC50 value≥7.5 (IC50≤32 nM)) | E (E represents a pKi value of 7 or below (Ki of 100 nM or above)) | B (B represents pKi value between 9 and 10 (Ki between 1 nM and 0.1 nM)) | A (A represents a value of 3 or above) | E (E represents a pKi value of 7 or below (Ki of 100 nM or above)) | E (E represents a pKi value of 7 or below (Ki of 100 nM or above))
C=CC(=O)N1CCN(CCn2c(=O)ccc3cnc(Nc4ccc(N5C[C@@H](C)N(C)[C@@H](C)C5)cc4)nc32)CC1 [Example 248] | A (A represents a pIC50 value≥7.5 (IC50≤32 nM)) | E (E represents a pKi value of 7 or below (Ki of 100 nM or above)) | B (B represents pKi value between 9 and 10 (Ki between 1 nM and 0.1 nM)) | A (A represents a value of 3 or above) | E (E represents a pKi value of 7 or below (Ki of 100 nM or above)) | E (E represents a pKi value of 7 or below (Ki of 100 nM or above))
C=CC(=O)N1CCN(CCn2c(=O)ccc3cnc(Nc4ccc(N5C[C@@H](C)N(C)[C@@H](C)C5)cc4)nc32)[C@@H](C)C1 [Example 249] | A (A represents a pIC50 value≥7.5 (IC50≤32 nM)) | E (E represents a pKi value of 7 or below (Ki of 100 nM or above)) | B (B represents pKi value between 9 and 10 (Ki between 1 nM and 0.1 nM)) | A (A represents a value of 3 or above) | E (E represents a pKi value of 7 or below (Ki of 100 nM or above)) | E (E represents a pKi value of 7 or below (Ki of 100 nM or above))
C=CC(=O)N1CCN(CCn2c(=O)ccc3cnc(Nc4cnn(C5CCOCC5)c4)nc32)[C@@H](C)C1 [Example 250] | B (B represents a pC50 value between 6.7 (included) and 7.5 (IC50 between 200 nM and 32 nM)) | E (E represents a pKi value of 7 or below (Ki of 100 nM or above)) | B (B represents pKi value between 9 and 10 (Ki between 1 nM and 0.1 nM)) | A (A represents a value of 3 or above) | E (E represents a pKi value of 7 or below (Ki of 100 nM or above)) | E (E represents a pKi value of 7 or below (Ki of 100 nM or above))
C=CC(=O)N1CCN(CCn2c(=O)ccc3cnc(Nc4ccc(N5CCN(C)[C@@H](C)C5)cc4)nc32)[C@@H](C)C1 [Example 251] | B (B represents a pC50 value between 6.7 (included) and 7.5 (IC50 between 200 nM and 32 nM)) | E (E represents a pKi value of 7 or below (Ki of 100 nM or above)) | B (B represents pKi value between 9 and 10 (Ki between 1 nM and 0.1 nM)) | A (A represents a value of 3 or above) | E (E represents a pKi value of 7 or below (Ki of 100 nM or above)) | E (E represents a pKi value of 7 or below (Ki of 100 nM or above))
C=CC(=O)N1CCN(CCn2c(=O)ccc3cnc(Nc4ccc(N5CCN(C)[C@@H](C)C5)nc4)nc32)[C@@H](C)C1 [Example 252] | B (B represents a pC50 value between 6.7 (included) and 7.5 (IC50 between 200 nM and 32 nM)) | E (E represents a pKi value of 7 or below (Ki of 100 nM or above)) | B (B represents pKi value between 9 and 10 (Ki between 1 nM and 0.1 nM)) | A (A represents a value of 3 or above) | E (E represents a pKi value of 7 or below (Ki of 100 nM or above)) | E (E represents a pKi value of 7 or below (Ki of 100 nM or above))
